According to patent publication US10961200B2, “Small molecule inhibitors of lactate dehydrogenase and methods of use thereof” (THE UNITED STATES OF AMERICA, AS REPRESENTED BY THE …, priority 2014, dated 2021):

Key:
MiaPaCa2 cells = test: cell-based HT lactate assay, colorimetric/fluorometric detection (inhibition of lactate production); conditions: class symbols, 0 to 3 pluses
Human LDHA = Human LDHA (Homo sapiens (Human), UniProt P00338); test: human LDHA primary biochemical assay (resazurin/diaphorase coupled, fluorescence); conditions: LDHA inhibitory activity, activity level based on IC50 (Table 7)
From the text: Test compounds were placed in a Greiner Bio-One (Monroe, N.C.) 1536-well black solid bottom assay plate. 200 millimolar (mM) Tris HCl, pH 7.4, 100 micromolar […] EDTA and 0.01% TWEEN-20™, final concentration, was used as the assay buffer. The LDHA reagent was 2 nanomolar (nM) Human LDHA (Meridian Life Science, Inc., Memphis, Tenn.), final concentration, in assay buffer.

SMILES | IC50 (MiaPaCa2 cells) | IC50 (Human LDHA) | IC50 (MiaPaCa2 cells; Homo sapiens, MIA PaCa-2)
NS(=O)(=O)c1ccc(Cc2c(-c3cccc(N4CCC(F)(F)C4)c3)nn(-c3nc(C(=O)O)cs3)c2CC2CC2)cc1F [Compound 395] | 10000 to 57000 nM | 1000 to 57000 nM | 
NS(=O)(=O)c1ccc(Cc2c(-c3cccc(N4CCCC(C(F)(F)F)C4)c3)nn(-c3nc(C(=O)O)cs3)c2CC2CC2)cc1F (stereo not shown) [Compound 396] | 1000 to 10000 nM | < 100 nM | 
NS(=O)(=O)c1ccc(Cc2c(-c3cccc(N4CCCC(F)(F)C4)c3)nn(-c3nc(C(=O)O)cs3)c2CC2CC2)cc1F [Compound 397] | 1000 to 10000 nM | < 100 nM | 
NS(=O)(=O)c1ccc(Cc2c(-c3cccc(C(O)(C4CC4)C(F)(F)F)c3)nn(-c3nc(C(=O)O)cs3)c2CC2CC2)cc1F (stereo not shown) [Compound 398] | 10000 to 57000 nM | < 100 nM | 
N[S+](=O)([O-])c1ccc(Cc2c(CC3CC3)nn(-c3nc(C(=O)O)cs3)c2-c2ccc(C(O)(C3CC3)C(F)(F)F)cc2)cc1F (stereo not shown) [Compound 399] |  | 1000 to 57000 nM | > 57000 nM
NS(=O)(=O)c1ccc(Cc2c(-c3ccc(F)c(OCC4CC4(F)F)c3)nn(-c3nc(C(=O)O)cs3)c2CC2CC2)cc1F (stereo not shown) [Compound 400] | < 1000 nM | < 100 nM | 
CC(C)(C)C#Cc1cc(-c2nn(-c3nc(C(=O)O)cs3)c(CC3CC3)c2Cc2ccc(S(N)(=O)=O)c(F)c2)ccc1F [Compound 402] | < 1000 nM | < 100 nM | 
NS(=O)(=O)c1ccc(Cc2c(-c3ccc(F)c(C#Cc4cccs4)c3)nn(-c3nc(C(=O)O)cs3)c2CC2CC2)cc1F [Compound 403] | < 1000 nM | < 100 nM | 
COCC#Cc1cc(-c2nn(-c3nc(C(=O)O)cs3)c(CC3CC3)c2Cc2ccc([S+](N)(=O)[O-])c(F)c2)ccc1F [Compound 404] |  | < 100 nM | < 1000 nM
Cn1cncc1C#Cc1cc(-c2nn(-c3nc(C(=O)O)cs3)c(CC3CC3)c2Cc2ccc(S(N)(=O)=O)c(F)c2)ccc1F [Compound 405] | < 1000 nM | < 100 nM | 
NS(=O)(=O)c1ccc(Cc2c(-c3ccc(F)c(C4CC4)c3)nn(-c3nc(C(=O)O)cs3)c2CC2CC2)cc1Cl [Compound 406] | 1000 to 10000 nM | < 100 nM | 
Cc1ccc(-c2cc(-c3nn(-c4nc(C(=O)O)cs4)c(CC4CC4)c3Cc3ccc(S(N)(=O)=O)c(Cl)c3)ccc2F)s1 [Compound 407] | < 1000 nM | < 100 nM | 
Cc1ccc(C#Cc2cc(-c3nn(-c4nc(C(=O)O)cs4)c(CC4CC4)c3Cc3ccc(S(N)(=O)=O)c(F)c3)ccc2F)s1 [Compound 408] | < 1000 nM | < 100 nM | 
N[S+](=O)([O-])c1ccc(Cc2c(-c3ccc(F)c(C#CCCO)c3)nn(-c3nc(C(=O)O)cs3)c2CC2CC2)cc1F [Compound 409] |  | < 100 nM | 1000 to 10000 nM
C#Cc1cc(-c2nn(-c3nc(C(=O)O)cs3)c(CC3CC3)c2Cc2ccc(S(N)(=O)=O)c(F)c2)ccc1F [Compound 410] | < 1000 nM | < 100 nM | 
N[S+](=O)([O-])c1ccc(Cc2c(-c3ccc(F)c(C#CCC4CCCC4)c3)nn(-c3nc(C(=O)O)cs3)c2CC2CC2)cc1F [Compound 411] | < 1000 nM | < 100 nM | 
NS(=O)(=O)c1ccc(Cc2c(-c3ccc(F)c(C#CC4(O)CCCC4)c3)nn(-c3nc(C(=O)O)cs3)c2CC2CC2)cc1F [Compound 412] | 1000 to 10000 nM | < 100 nM | 
NS(=O)(=O)c1ccc(Cc2c(-c3ccc(F)c(C#CC4(F)COC4)c3)nn(-c3nc(C(=O)O)cs3)c2CC2CC2)cc1F [Compound 414] | 1000 to 10000 nM | < 100 nM | 
NS(=O)(=O)c1ccc(Cc2c(-c3ccc(F)c(C#CC4(O)COC4)c3)nn(-c3nc(C(=O)O)cs3)c2CC2CC2)cc1F [Compound 415] | 1000 to 10000 nM | < 100 nM | 
CC1(C#Cc2cc(-c3nn(-c4nc(C(=O)O)cs4)c(CC4CC4)c3Cc3ccc(S(N)(=O)=O)c(F)c3)ccc2F)COC1 [Compound 416] | 1000 to 10000 nM | < 100 nM | 
N[S+](=O)([O-])c1ccc(Cc2c(-c3ccc(F)c(C#CCN4CCCC4)c3)nn(-c3nc(C(=O)O)cs3)c2CC2CC2)cc1F [Compound 417] | 1000 to 10000 nM | < 100 nM | 
NS(=O)(=O)c1ccc(Cc2c(-c3ccc(F)c(C#CC4(O)CCOC4)c3)nn(-c3nc(C(=O)O)cs3)c2CC2CC2)cc1F (stereo not shown) [Compound 418] | 1000 to 10000 nM | < 100 nM | 
NS(=O)(=O)c1ccc(Cc2c(-c3ccc(F)c(C#CC4(F)CCOC4)c3)nn(-c3nc(C(=O)O)cs3)c2CC2CC2)cc1F (stereo not shown) [Compound 419] | < 1000 nM | < 100 nM | 
CC#Cc1cc(-c2nn(-c3nc(C(=O)OCC)cs3)c(CC3CC3)c2Cc2ccc(S(N)(=O)=O)c(F)c2)ccc1F [Compound 420] | > 57000 nM | 1000 to 57000 nM | 

SMILES | IC50 (MiaPaCa2 cells) | IC50 (Human LDHA) | IC50 (MiaPaCa2 cells; Homo sapiens, MIA PaCa-2)
N[S+](=O)([O-])c1ccc(Cc2c(-c3ccc(F)c(C#CCC4CCCO4)c3)nn(-c3nc(C(=O)O)cs3)c2CC2CC2)cc1F (stereo not shown) [Compound 421] | 1000 to 10000 nM | < 100 nM | 
CC#Cc1cc(-c2nn(-c3nc(C(=O)O)cs3)c(CC3CC3)c2Cc2cccc([S+](N)(=O)[O-])c2)ccc1F [Compound 422] | 10000 to 57000 nM | < 100 nM | 
NS(=O)(=O)c1ccc(Cc2c(-c3ccc(F)c(C#CC4CCOC4)c3)nn(-c3nc(C(=O)O)cs3)c2CC2CC2)cc1F (stereo not shown) [Compound 423] | < 1000 nM | < 100 nM | 
CCOC(=O)c1csc(-n2nc(-c3cccc(C#CC4CCCC4)c3)c(Cc3ccc(S(N)(=O)=O)c(F)c3)c2CC2CC2)n1 [Compound 428] | > 57000 nM | > 57000 nM | 
CCOC(=O)c1csc(-n2nc(-c3ccc(F)c(C#CC4CCCC4)c3)c(Cc3ccc([S+](N)(=O)[O-])cc3)c2CC2CC2)n1 [Compound 429] | > 57000 nM | 1000 to 57000 nM | 
N[S+](=O)([O-])c1ccc(Cc2c(-c3ccc(F)c(C#CC4CCCC4)c3)nn(-c3nc(C(=O)O)cs3)c2CC2CC2)cc1 [Compound 430] | < 1000 nM | < 100 nM | 
N[S+](=O)([O-])c1ccc(Cc2c(-c3ccc(F)c(C#CC4CCCC4)c3)nn(-c3nc(C(=O)O)cs3)c2C2CC2)cc1F [Compound 431] | < 1000 nM | < 100 nM | 
N[S+](=O)([O-])c1ccc(Cc2c(-c3cccc(C#CC4CCCC4)c3)nn(-c3nc(C(=O)O)cs3)c2CC2CC2)cc1F [Compound 432] | < 1000 nM | < 100 nM | 
N[S+](=O)([O-])c1ccc(Cc2c(-c3ccc(F)c(C#CC4CC4)c3)nn(-c3nc(C(=O)O)cs3)c2CC2CC2)cc1 [Compound 433] | < 1000 nM | < 100 nM | 
CCOC(=O)c1csc(-n2nc(-c3ccc(F)c(C#CC4CCCC4)c3)c(Cc3ccc(S(N)(=O)=O)c(F)c3)c2C2CC2)n1 [Compound 434] | > 57000 nM | 1000 to 57000 nM | 
CCOC(=O)c1csc(-n2nc(-c3ccc(F)c(C#CC4CC4)c3)c(Cc3ccc(S(N)(=O)=O)cc3)c2CC2CC2)n1 [Compound 435] | > 57000 nM | 1000 to 57000 nM | 
NS(=O)(=O)c1ccc(Cc2c(-c3ccc(F)c(C#CC4(F)CCCC4)c3)nn(-c3nc(C(=O)O)cs3)c2CC2CC2)cc1F [Compound 436] | < 1000 nM | < 100 nM | 
NS(=O)(=O)c1ccc(Cc2c(-c3ccc(F)c(C#CCC4CC4)c3)nn(-c3nc(C(=O)O)cs3)c2CC2CC2)cc1F [Compound 437] | < 1000 nM | < 100 nM | 
N[S+](=O)([O-])c1cccc(Cc2c(-c3ccc(F)c(C#CC4CCCC4)c3)nn(-c3nc(C(=O)O)cs3)c2CC2CC2)c1 [Compound 438] | 1000 to 10000 nM | 100 to 1000 nM | 
NS(=O)(=O)c1ccc(Cc2c(-c3ccc(F)c(C#CC(F)F)c3)nn(-c3nc(C(=O)O)cs3)c2CC2CC2)cc1F [Compound 440] | 1000 to 10000 nM | < 100 nM | 
N#CC#Cc1cc(-c2nn(-c3nc(C(=O)O)cs3)c(CC3CC3)c2Cc2ccc(S(N)(=O)=O)c(F)c2)ccc1F [Compound 442] | 1000 to 10000 nM | < 100 nM | 
CC(F)C#Cc1cc(-c2nn(-c3nc(C(=O)O)cs3)c(CC3CC3)c2Cc2ccc([S+](N)(=O)[O-])c(F)c2)ccc1F (stereo not shown) [Compound 443] |  | < 100 nM | < 1000 nM
NS(=O)(=O)c1ccc(Cc2c(-c3ccc(F)c(C4=CCCC4)c3)nn(-c3nc(C(=O)O)cs3)c2CC2CC2)cc1F [Compound 444] | < 1000 nM | < 100 nM | 
CC(C)C#Cc1cc(-c2nn(-c3nc(C(=O)O)cs3)c(CC3CC3)c2Cc2ccc([S+](N)(=O)[O-])c(F)c2)ccc1F [Compound 445] | < 1000 nM | < 100 nM | 
NS(=O)(=O)c1ccc(Cc2c(-c3ccc(F)c(C#CC4CCC4)c3)nn(-c3nc(C(=O)O)cs3)c2CC2CC2)cc1F [Compound 446] | < 1000 nM | < 100 nM | 
NS(=O)(=O)c1ccc(Cc2cn(-c3nc(C(=O)O)cs3)nc2-c2ccc(F)c(-c3cccc(F)c3)c2)cc1 [Compound 458, 2-(3-(3′,6-difluoro-[1,1′-biphenyl]-3-yl)-4-(4-sulfamoylbenzyl)-1H-pyrazol-1-yl)thiazole-4-carboxylic acid] |  | < 100 nM | 1000 to 10000 nM
Cc1ccc(-c2nn(-c3nc(C(=O)O)cs3)c(CC3CC3)c2Cc2ccc(S(N)(=O)=O)cc2)cc1OC1CCCC1 [Compound 467, 2-(3-(3-(cyclopentyloxy)-4-methylphenyl)-5-(cyclopropylmethyl)-4-(4-sulfamoylbenzyl)-1H-pyrazol-1-yl)thiazole-4-carboxylic acid] |  | < 100 nM | < 1000 nM
NS(=O)(=O)c1ccc(Cc2c(-c3cc(OC4CCCC4)ccc3F)nn(-c3nc(C(=O)O)cs3)c2CC2CC2)cc1 [Compound 468, 2-(3-(5-(cyclopentyloxy)-2-fluorophenyl)-5-(cyclopropylmethyl)-4-(4-sulfamoylbenzyl)-1H-pyrazol-1-yl)thiazole-4-carboxylic acid] |  | 100 to 1000 nM | 1000 to 10000 nM
